Results on seven molecules are retold here after PubChem BioAssay AID2060493 (Molecular Pharmacology Branch, DTP, NCI, 2025).

The experiment concerns 616215-338-R-J1-PDC tumor spheroids, viability. Description: Anticancer human tumor 616215-338-R-J1-PDC patient-derived colon adenocarcinoma cell line growth inhibition [GQUAD]. Conditions: spheroids with HUVEC and MSC; for viability, T/C: stronger effect = lower value. The source says:
DNA G-quadruplex Stabilizer Agents in Combinations in Complex Spheroids
A high-throughput screen of multi-cell type tumor spheroids was designed to identify active combinations of DNA G-quadruplex stabilizer agents and targeted small molecules. Complex spheroids include a stromal component modeled by human endothelial cells (HUVEC) and fibroblasts modeled by human mesenchymal stem cells (MSCs). The concentration ranges selected for each drug and investigational agent were based upon clinically achievable concentrations if the clinical Cmax of the agent was known.
Compounds. The drugs and investigational agents: pidnarulex (CX-5461; NSC782164), APTO-253 (NSC789042), BRACO-19 (NSC847499), peposertib (NSC802822), ceralasertib (NSC780249), elimusertib (NSC800525), camonsertib (NSC841442), AZD-1390 (NSC803789), olaparib (NSC753686), talazoparib (NSC767125), ART-558 (NSC835418), sotorasib (NSC818433), MRTX-1133 (NSC836407), SN-38 (NSC673596), topotecan (NSC609699), etoposide (NSC141540), doxorubicin (NSC123127), gemcitabine (NSC613327), 5-fluorouracil (NSC19893), paclitaxel (NSC125973), vemurafenib (NSC761431), panobinostat (NSC761190), R-306465 (JNJ-16241199; NSC773264), adavosertib (NSC754352), TP-3654 (NSC805149), carboplatin (NSC241240), KSQ-4279 (NSC840948), and staurosporine (NSC755774) were obtained from the National Cancer Institute (NCI) Developmental Therapeutics Program Chemical Repository (34). The FDA-approved anticancer drug set is available from the NCI Developmental Therapeutics Program. […] The stock solutions were prepared in dimethyl sulfoxide (DMSO, Sigma-Aldrich, St. Louis, MO, cat. D2650) at 800-fold the tested concentration and stored at -70 degrees C prior to their use. All drugs and investigational agents were tested over a range starting from a high concentration at or near the clinical Cmax and decreasing in half-log increments. If the clinical Cmax for an agent had not been determined, the highest concentration tested was 10 microM.
2.3 Cell Culture. All cells were maintained in an incubator at 37 degrees C and 5% CO2 with 95% humidity. The PDC lines were cultured according to standard operating procedures established by the NCI PDMR. All PDCs were thawed and cultured in Matrigel-coated flasks prepared with a working solution of 1X Ham's F-12 nutrient mix, without supplementation (Invitrogen, cat. 11765054), 100 U/mL penicillin-streptomycin (Invitrogen, cat. 15140122), and 2.5% Matrigel (Corning Inc., cat. 354248) for the first three passages. The 857933-349-R-J2-PDC line was cultured in 6C/Colon 1B media, which includes advanced DMEM/F-12 (Thermo Fisher Scientific, cat. 12634028), 10 mM HEPES (Thermo Fisher Scientific, cat. 15630080), 1X GlutaMAX supplement (Thermo Fisher Scientific, cat. 35050061), 0.1 mg/mL primocin (InvivoGen, cat. ant-pm-2), 10% defined fetal bovine serum, heat inactivated (HyClone Laboratories Inc., cat. SH30070.03HI), 50% L-WRN conditioned media (ATCC, cat. CRL-3276), 1.25 mM N-Acetyl-L-cysteine (Sigma-Aldrich, cat. A9165), 10 mM nicotinamide (Sigma-Aldrich, cat. N0636), 1X B-27 supplement (Thermo Fisher Scientific, cat. 17504044), 1X N-2 supplement (Thermo Fisher Scientific, cat. 17502048), 10 microM Y-27632 dihydrochloride (Tocris Bioscience, cat. 1254), and 50 ng/mL human EGF recombinant protein (Thermo Fisher Scientific, cat. PHG0311). The 485176-168-R4-J1-PDC line was cultured in Panc media, which includes all 6C/Colon 1B media components plus 100 ng/mL human FGF-10 (Thermo Fisher Scientific, cat. 100-26), 500 nM SB-431542 (Selleckchem, cat. S1067), and gastrin (Tocris, cat. 3006).
[…]

pIC50: −log10 of the molar value. Several values for one entry are separate records, joined by “and”; a condition that tells them apart may be missing. Identical values can stand only once.
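Further: spheroids exposed to agents for 7 days before readout.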
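Wherever viability, T/C is given: percent viability relative to DMSO vehicle control wells taken as 100%.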

In general, pIC50 refers to −log10 of the IC50, conventionally taken in molar units. As usually defined, the viability, T/C is the ratio of treated to control. In the case of `O=C(NO)c1cnc(N2CCN(S(=O)(=O)c3ccc4ccccc4c3)CC2)nc1` + Cc1cnc(CNC(=O)c2c(=O)c3ccc(N4CCCN(C)CC4)nc3n3c2sc2ccccc23)cn1, the pIC50 by setting is: (curve of first compound, second compound 0.0316 µM) 6.30; (curve of first compound, second compound 0.1 µM) 6.83; (curve of first compound, second compound 0.316 µM) more than 7.50; (curve of first compound, second compound 1 µM) more than 7.50; (curve of first compound, second compound 3.16 µM) more than 7.50; (curve of first compound, second compound 10 µM) more than 7.50. Moreover, the viability, T/C was 101% (second compound 0.0316 µM, first compound 0.0316 µM); 96.1% (second compound 0.0316 µM, first compound 0.1 µM); 79.9% (second compound 0.0316 µM, first compound 0.316 µM); 5.15% (second compound 0.0316 µM, first compound 1 µM); 0.03% (second compound 0.0316 µM, first compound 3.16 µM); 0.07% (second compound 0.0316 µM, first compound 10 µM). Also, the viability, T/C is 54.1% (second compound 0.1 µM, first compound 0.0316 µM); 66.6% (second compound 0.1 µM, first compound 0.1 µM); 29.4% (second compound 0.1 µM, first compound 0.316 µM); 0.37% (second compound 0.1 µM, first compound 1 µM); 0.03% (second compound 0.1 µM, first compound 3.16 µM); 0.07% (second compound 0.1 µM, first compound 10 µM). Also, the viability, T/C reads like this: (second compound 0.316 µM, first compound 0.0316 µM) 37.2%; (second compound 0.316 µM, first compound 0.1 µM) 41.2%; (second compound 0.316 µM, first compound 0.316 µM) 28.5%; (second compound 0.316 µM, first compound 1 µM) 0.06%; (second compound 0.316 µM, first compound 3.16 µM) 0.02%; (second compound 0.316 µM, first compound 10 µM) 0.06%. In addition, the viability, T/C runs as follows: (second compound 1 µM, first compound 0.0316 µM) 24.7%; (second compound 1 µM, first compound 0.1 µM) 24.8%; (second compound 1 µM, first compound 0.316 µM) 35.1%; (second compound 1 µM, first compound 1 µM) 0.04%; (second compound 1 µM, first compound 3.16 µM) 0.03%; (second compound 1 µM, first compound 10 µM) 0.08%. Also, the viability, T/C (second compound 3.16 µM, first compound 0.0316 µM) was 21.9%; the viability, T/C (second compound 3.16 µM, first compound 0.1 µM) was 34.8%; the viability, T/C (second compound 3.16 µM, first compound 0.316 µM) was 0.18%; the viability, T/C (second compound 3.16 µM, first compound 1 µM) is 0.07%; the viability, T/C (second compound 3.16 µM, first compound 3.16 µM) is 0.07%; the viability, T/C (second compound 3.16 µM, first compound 10 µM) is 0.09%. Also, the viability, T/C by setting is: (second compound 10 µM, first compound 0.0316 µM) 12.2%; (second compound 10 µM, first compound 0.1 µM) 16%; (second compound 10 µM, first compound 0.316 µM) 0.15%; (second compound 10 µM, first compound 1 µM) 0.14%; (second compound 10 µM, first compound 3.16 µM) 0.16%; (second compound 10 µM, first compound 10 µM) 0.17%.

Regarding `CC1COCCN1c1cc(C2(O)CC3CCC(C2)O3)c2cnn(-c3ccn[nH]3)c2n1` (stereo not given), the viability, T/C (compound 0.0316 µM) was 95.2% and 102% and 99.8%; the viability, T/C (compound 0.1 µM) is 60.7% and 60.2% and 55.6%; the viability, T/C (compound 0.316 µM) is 45.5% and 31.8% and 40.3%; the viability, T/C (compound 1 µM) was 34.9% and 39.4% and 31.6%; the viability, T/C (compound 3.16 µM) is 21.1% and 23.5% and 21.3%; the viability, T/C (compound 10 µM) was 23.2% and 16.9% and 12.9%. The pIC50 (curve of compound) is 6.66 and 6.77 and 6.76.

In the case of `CC[C@@]1(O)C(=O)OCc2c1cc1n(c2=O)Cc2cc3c(CN(C)C)c(O)ccc3nc2-1`, the viability, T/C (compound 0.000999 µM) is 106% and 109% and 103%; the viability, T/C (compound 0.00316 µM) was 93.6% and 97% and 92.9%; the viability, T/C (compound 0.00999 µM) is 92.7% and 99.7% and 101%; the viability, T/C (compound 0.0316 µM) is 92.8% and 96.2% and 101%; the viability, T/C (compound 0.0999 µM) is 97.8% and 89% and 91.2%; the viability, T/C (compound 0.316 µM) was 50.1% and 44.3% and 47.5%. Further, under “curve of compound”, the pIC50 is < 6.50 and 6.56 and 6.53.

Take `Cc1cccc(N(C)C(=O)C2C(O)CCN2c2nc(C)cc(C(F)(F)F)c2C#N)c1` (stereo not given): the viability, T/C reads like this: (compound 0.0316 µM) 91.4% and 99.2% and 101%; (compound 0.1 µM) 106% and 94.5% and 102%; (compound 0.316 µM) 94.1% and 103% and 102%; (compound 1 µM) 94% and 96.9% and 105%; (compound 3.16 µM) 102% and 98.7% and 113%; (compound 10 µM) 102% and 92.6% and 103%. Moreover, the pIC50 (curve of compound) is less than 5.00.

As for `CC(=O)O[C@H]1C(=O)[C@@]2(C)[C@H]([C@H](OC(=O)c3ccccc3)[C@]3(O)C[C@H](OC(=O)[C@H](O)[C@@H](NC(=O)c4ccccc4)c4ccccc4)C(C)=C1C3(C)C)[C@]1(OC(C)=O)CO[C@@H]1C[C@@H]2O`, the viability, T/C reads like this: (compound 0.0316 µM) 18.6% and 23.3% and 49.7%; (compound 0.1 µM) 15.1% and 16.7% and 22.2%; (compound 0.316 µM) 14.9% and 20% and 21.1%; (compound 1 µM) 18% and 14.6% and 17.4%; (compound 3.16 µM) 13.8% and 14.9% and 15.3%; (compound 10 µM) 13.3% and 15.2% and 14.8%. Besides, the pIC50 (curve of compound) was more than 7.50.

Consider `COc1ncnc(C2CC2)c1-c1ncc2cnn(Cc3ccc(-c4nc(C(F)(F)F)cn4C(C)C)cc3)c2n1`, for which the viability, T/C is, setting by setting: (compound 0.0316 µM) 113% and 96.4% and 110%; (compound 0.1 µM) 108% and 109% and 97.3%; (compound 0.316 µM) 99.2% and 103% and 102%; (compound 1 µM) 116% and 99.7% and 105%; (compound 3.16 µM) 106% and 100% (2×); (compound 10 µM) 106% and 92.4% and 93.6%. Further, where the note is “curve of compound”, the pIC50 was less than 5.00.

`Cc1[nH]c2ccc(F)cc2c1-c1nc2c3cccnc3c3ncccc3c2[nH]1`: the viability, T/C is 105% [middle of 12 runs] (compound 0.0316 µM); 104% [middle of 12 runs] (compound 0.1 µM); 99.5% [middle of 12 runs] (compound 0.316 µM); 100% [middle of 12 runs] (compound 1 µM); 91.3% [middle of 12 runs] (compound 3.16 µM); 98% [middle of 12 runs] (compound 10 µM). Also, the pIC50 (compound alone, run of 04/16/2024) is less than 5.00 and the pIC50 (compound alone, run of 04/22/2024) was less than 5.00.
